Results taken from patent US20120258944A1, “ANTIOXIDANTS FOR USE IN THERAPY” (priority 2009, published 2012).

Columns and labels:
[1] = ABTS radical cation assay (TEAC) in aqueous PBS buffer; details: 6.08 micro-M, PBS buffer pH 7.4, after 5 min
Experimental: In order to investigate its aqueous phase performance, we thought that it would be interesting to determine its Trolox Equivalent Antioxidant Capacity (TEAC) (Free Rad. Biol. Med. 1999, 26, 1231-1237) which has been used to quantify the antioxidant activity of biological fluids, extracts and pure compounds. The TEAC value is defined as the concentration of Trolox which has an equivalent antioxidant potential as a 1 mM solution of the compound under investigation (Free Rad. Biol. Med. 1996, 20, 933-956).
A 2,2′-azinobis(3-ethylbenzothiazoline-6 sulphonic acid radical cation (ABTS•+) assay was used to determine relative TEAC values. To a preformed solution of ABTS•+ in PBS buffer, pH 7.4, with an absorbance slightly above 0.7 were added various amounts (3-30 microM) of organoselenium compound 1, Trolox, sodium ascorbate and N-acetylcysteine. The absorbance at 734 inn was recorded immediately after mixing and then every minute for the next 8 minutes.
Antioxidant activity as determined by the capacity of the antioxidant to decolorize the ABTS^+ radical cation was determined essentially as described in the literature (Acc. Chem. Res. 1986, 19, 194-201). […] In a typical experiment, the antioxidant (1.52 micro-L of a 3.00 mM solution in MeOH or water; final concentration=6.08 micro-M) was syringed into 0.750 mL of the ABTS^+ radical cation solution. After initial mixing, the absorbance was recorded every minute for the next eight minutes.

[2] = tested on: human Neutrophils and human PBMCs; assay: Intracellular ROS, luminol luminescence with SOD and catalase, PMA or fMLF stimulated cells; assay type: cell-based; details: PMA or fMLF 30 ng/ml; compounds 120, 60, 30 microM; FIG. 5-8
Experimental: (§1) Validation was performed by stimulating cells with PMA and fMLF. When treated with the antioxidants, altered level of ROS production from the cells was measured using luminometry. Both intracellular and extracellular effect on ROS on the cells was analyzed using isoluminol (extracellular) and luminol (intracellular when co-administered with SOD and catalase) (Dahlgren et al. “Respiratory burst in human neutrophils”, Journal of Immunological Methods 232 1999; 3-14).
The luminol reagent buffer is made of HBSS buffer (with Ca^2+), luminol and SOD/Catalase.
(§2) 1) Add 25 microL of antioxidants to assay plate to get proper concentrations in a total reaction volume of 100 micro-L. 2) Add 25 microL of PMA (120 ng/ml) and fMLF (120 ng/ml) to assay plate to get concentration of 30 ng/ml in a total reaction volume of 100 microL. 3) Add 50 microL of cell suspension (2 million cells/ml) to each well. Immediately after addition of cell suspension initiate luminescence measurement; the reaction starts at once when the cells are added to the assay plate. Measurement points are taken at 1-minute intervals for 25 minutes. Data is presented as AUC (Area Under Curve) by a summary of all collected measurements for each well.
FIG. 5: Intracellular ROS analyzed by Luminol (intracellular ROS) induced luminescence in human Neutrophils. ROS induced with PMA (30 ng/ml) with 200, 100 or 0 microM NAC. Concentrations of compounds 120, 60, 30 and 0 microM final concentrations.
FIG. 6: Intracellular ROS analyzed by Luminol (intracellular ROS) induced luminescence in human Neutrophils. ROS induced with fMLF (30 ng/ml) with 200, 100 or 0 microM NAC. Concentrations of compounds 120, 60, 30 and 0 microM final concentrations.
FIG. 7: Intracellular ROS analyzed by Luminol (intracellular ROS) induced luminescence in human PBMCs. ROS induced with PMA (30 ng/ml) with 200, 100 or 0 microM NAC. Concentrations of compounds 120, 60, 30 and 0 microM final concentrations.
FIG. 8: Intracellular ROS analyzed by Luminol (intracellular ROS) induced luminescence in human PBMCs. […]

[3] = tested on: human neutrophils and PBMCs, rat neutrophils and PBMCs, human PLB-985 cell line; assay: Extracellular ROS, isoluminol luminescence, PMA or fMLF stimulated cells; assay type: cell-based; details: PMA or fMLF 30 ng/ml; compounds 120 to 0 microM; FIG. 1-4, 9-12, 14-17
Experimental: as §1
The isoluminol reagent buffer was made of HBSS buffer (with Ca^2+), Isoluminol and HRP.
as §2
FIG. 1: Extracellular ROS analyzed by Isoluminol induced luminescence in human Neutrophils. ROS induced with PMA (30 ng/ml) with 200, 100 or 0 microM NAC. Concentrations of compounds 120, 60, 30 and 0 microM final concentrations.
FIG. 9: Extracellular ROS analyzed by Isoluminol induced luminescence in rat Neutrophils. ROS induced with PMA (30 ng/ml) with 200, 100 or 0 microM NAC. Concentrations of compounds 120, 60, 30 and 0 microM final concentrations.
FIG. 11: Extracellular ROS analyzed by Isoluminol induced luminescence in human PLB-985 cell line. ROS induced with PMA (30 ng/ml) with 200, 100 or 0 microM NAC. Concentrations of compounds 120, 60, 30 and 0 microM final concentrations.

PLB985 cells = assay: Resazurin based in vitro toxicology assay (TOX8); assay type: cell-based, human; details: PLB985, 3 hours, 120 μM
Experimental: The viability of cells treated with the compounds was also analyzed using a Resazurin based in vitro Toxicology Assay Kit (SigmaAldrich TOX8). Resazurin systems measure the metabolic activity of living cell. Resazurin in its oxidized form (blue) is reduced (red) by living cells and the amount of dye conversion is measured fluorometrically or spectrophotometrically indicating the degree of cytotoxicity.
1) 75 micro-l of PLB985 cells (1 million cells/ml) is mixed with 25 micro-l of Compounds 1, 2, 3 and D (480, 120, 15 and 0.48 micro-M) in a 96 well plate in duplicates. 2) 10 micro-L of Resazurin solution is added to each well and the plate is incubated at 37° C. for 3 hours. 3) Spectrophotometrical analysis is performed in plate reader at 600 and 690 nm.
FIG. 18: Cell viability of compounds in human PLB-985 cell line. Concentrations of compounds 120; 60; 30; 3.75; 0.12 and […] final concentrations. Measurement that indicates cell cytotoxicity (In vitro toxicology assay, TOX-8). The bars show increased level of cytotoxicity (analysis of absorbance of 600 nm substracted with absorbance 690 nm).

[4] = tested on: human umbilical vein endothelial cells (HUVEC); assay: XTT in vitro toxicology test in human umbilical vein endothelial cells; assay type: cell-based; details: for toxic concentration: HUVEC; for relative toxicity among the compounds: human endothelial cells, up to 72 hours
Experimental: As a negative control, cells incubated with medium containing 0.5% DMSO (corresponding to the highest DMSO concentration above) was used. As a positive control, cells were incubated in the presence of 20% EtOH.
After the incubation with the compounds, the wells were washed with PBS to remove substances which could interfere with the assay. 40 μl of fresh medium 200 without phenol red was added together with 10 μl XTT substance (according to the manufacturer's instructions). The plates were incubated for 8 hrs and the colour development was monitored by measuring the absorbance at 450 nm.
After incubation, the number of viable cells was assessed by observing the amount of metabolized XTT (2,3-bis[2-methoxy-4-nitro-5-sulphophenyl]-2H-tetrazolium-5-carboxyanilide inner salt).

[5] = tested on: human umbilical vein endothelial cells (HUVEC); assay: Visual evaluation of HUVECs under the microscope (dislodging from the surface); details: HUVEC
Experimental: Cells were harvested and resuspended in supplemented medium 200 without phenol red. 50 000 cells were added in duplicates to 96-well plates. The compounds were tested on HUVECs according to the following concentrations.
The compounds were diluted in Medium 200 from the 0.1M stock solution. The toxic effects of the compounds were tested after 24 hrs, 48 hrs and 72 hrs.
By visually looking at the cells under the microscope and estimating the dislodging from the surface, the state of the cells was evaluated.

[6] = cited from earlier work; for Inhibited Rate of Linoleic Acid Peroxidation (Rinh): two-phase model, N-acetylcysteine in the aqueous phase
kidney slice = assay: Organ model TBARS experiment (TBA-MDA assay) in kidney slices
[7] = coupled reductase method; cited from earlier work
liver microsomes = details: cited from earlier work
[8] = tested on: MG-63, HEK-293, SHSY-5y, MRC-5 and CaCo-2-cells; assay: Alamar Blue cell viability/proliferation assay; assay type: cell-based, human; details: 60 micro-M, day 1 to day 7
Text: Alamar Blue is a non-toxic metabolic indicator for viable cells. Following uptake, the dye becomes reduced and causes a change in the colour of the cell. The colour change correlates reasonably well with the number of living cells in the sample.
Cells w/o antioxidant were used as controls.
Alamar Blue is a non-toxic metabolic indicator for viable cells. Upon uptake into the cell the dye becomes reduced and changes colour. The colour change correlates approximately with the number of living cells in the sample.

Which TEAC value [1] does the source give for `CC(=O)N[C@@H](CS)C(=O)O` [N-acetylcysteine] here?
Its TEAC value is 2.4.

What does the source list for `CCCCCCCC[Te]c1nc(C)cc(C)c1O` [Comparative Compound 3]?
antioxidative effect on intracellular ROS [2]: lesser effect; antioxidative effect on extracellular ROS [3]: less potent; cell viability at highest concentration (PLB985 cells): decrease in cell viability; toxic concentration ([4]; 24 hrs incubation): 100 µM; toxic concentration ([4]; 48 hrs incubation): 100 µM; toxic concentration ([4]; 72 hrs incubation): 100 µM; relative toxicity among the compounds [4]: most toxic compound; concentration at which cells were affected (visual) ([5]; 24 hrs): 100 µM; Inhibited Rate of Linoleic Acid Peroxidation (Rinh) [6]: 8 µM/h

Which results are given for `Cc1cc2c(c(C)c1O)CC(C)[Se]2` (stereo not shown) [Compound 6]?
potency as inhibitor of TBARS production compared with references (kidney slice): more potent inhibitors of TBARS production than Trolox and N-acetylcysteine; concentration able to inhibit 50% of the TBARS formation in the control incubation (kidney slice; re-oxygenation after Argon): sub-micromolar

Which results are given for `Oc1ccc2c(c1)CC[Te]2` [X═Te]?
antioxidant capacity ([6]; two-phase system, presence of a reducing agent): best antioxidant capacity; catalyst activity in the reaction between glutathione and hydroperoxide (thiol peroxidase activity) [7]: highly active catalyst; inhibition of lipid peroxidation in liver microsomes (liver microsomes): potent inhibitor

For `CC[Te]c1nc(C)cc(C)c1O` [Comparative Compound 2], which “antioxidative effect on intracellular ROS” value [2] is on record?
Its value is “lesser effect”.

What about the “antioxidative effect on extracellular ROS” value [3] of the same molecule?
The value was “less potent”.

What about the “cell viability at highest concentration” value (PLB985 cells) of the same molecule?
Its value is “decrease in cell viability”.

What about the toxic concentration ([4]; 24 hrs incubation) of the same molecule?
Its toxic concentration is 500 µM.

What about the toxic concentration ([4]; 48 hrs incubation) of the same molecule?
The toxic concentration was 200 µM.

And the toxic concentration ([4]; 72 hrs incubation)?
Its toxic concentration is 200 µM.

And the “relative toxicity among the compounds” value [4]?
The value was “slightly more toxic than Compounds 1”.

What about the “concentration at which cells were affected (visual)” value ([5]; 24 hrs) of the same molecule?
Its value is 500 µM.

And the “concentration at which cells were affected (visual)” value ([5]; 48 hrs)?
The value was 200 µM.

And the “Inhibited Rate of Linoleic Acid Peroxidation (Rinh)” value [6]?
Its value is 22 µM/h.

Which “inhibition of azo-initiated peroxidation of linoleic acid” value ([6]; two-phase system, absence of thiol reducing agent) does the source give for `Oc1ccc2c(c1)CC[Se]2` [X═Se] here?
Its value is “poor inhibitor”.

And the “catalyst activity in the reaction between glutathione and hydroperoxide (thiol peroxidase activity)” value [7]?
The value was “insignificant”.

What about the “inhibition of lipid peroxidation in liver microsomes” value (from here on “inhibition of lipid peroxidation”) (liver microsomes) of the same molecule?
Its value is “not effective”.

With `Oc1ccc2c(c1)CCO2` [X═O] as the molecule, how does the “inhibition of lipid peroxidation” value (liver microsomes) read?
Its value is “not effective”.

With `Oc1ccc2c(c1)CCS2` [X═S] as the molecule, how does the “inhibition of lipid peroxidation” value (liver microsomes) read?
Its value is “not effective”.

With `Cc1c(C)c2c(c(C)c1O)CCC(C)(C(=O)O)O2` (stereo not shown) [Trolox] as the molecule, how does the “cell growth (Alamar Blue)” value [8] read?
The value was “normal cell growth patterns”.
